Experimental data taken from ChEMBL document CHEMBL4507318, “Data for DCP probe BAY-985” (2021).

Columns and labels:
[1] = target: Ribosomal protein S6 kinase alpha-1 (Homo sapiens) (UniProt Q15418)
[2] = target: cAMP-dependent protein kinase catalytic subunit PRKX (Homo sapiens) (UniProt P51817)
[3] = target: Inhibitor of nuclear factor kappa-B kinase subunit alpha (Homo sapiens) (UniProt O15111)
[4] = target: Mitogen-activated protein kinase kinase kinase 5 (Homo sapiens) (UniProt Q99683)
[5] = target: Tyrosine-protein kinase Mer (Homo sapiens) (UniProt Q12866)
[6] = target: 1-phosphatidylinositol 3-phosphate 5-kinase (Homo sapiens) (UniProt Q9Y2I7)
[7] = target: Mu-type opioid receptor (Homo sapiens) (UniProt P35372); conditions: Compound concentration 10.0 uM
Sequence of Mu-type opioid receptor (Homo sapiens) (P35372 whole entry): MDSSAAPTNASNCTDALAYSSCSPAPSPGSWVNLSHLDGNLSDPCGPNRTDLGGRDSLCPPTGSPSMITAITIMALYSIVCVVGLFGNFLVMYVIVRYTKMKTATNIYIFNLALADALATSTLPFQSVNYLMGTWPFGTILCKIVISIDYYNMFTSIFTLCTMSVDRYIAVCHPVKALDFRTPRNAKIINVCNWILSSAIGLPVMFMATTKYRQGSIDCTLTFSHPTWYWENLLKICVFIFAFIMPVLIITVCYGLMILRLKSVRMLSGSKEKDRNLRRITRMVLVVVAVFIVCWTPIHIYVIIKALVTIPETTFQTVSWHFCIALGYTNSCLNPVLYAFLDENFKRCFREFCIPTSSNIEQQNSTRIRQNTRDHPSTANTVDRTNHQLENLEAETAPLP

[8] = target: Ephrin type-B receptor 6 (Homo sapiens) (UniProt O15197)
[9] = target: Receptor-type tyrosine-protein kinase FLT3 (Homo sapiens) (UniProt P36888)
Sequence of Receptor-type tyrosine-protein kinase FLT3 (Homo sapiens) (P36888 whole entry): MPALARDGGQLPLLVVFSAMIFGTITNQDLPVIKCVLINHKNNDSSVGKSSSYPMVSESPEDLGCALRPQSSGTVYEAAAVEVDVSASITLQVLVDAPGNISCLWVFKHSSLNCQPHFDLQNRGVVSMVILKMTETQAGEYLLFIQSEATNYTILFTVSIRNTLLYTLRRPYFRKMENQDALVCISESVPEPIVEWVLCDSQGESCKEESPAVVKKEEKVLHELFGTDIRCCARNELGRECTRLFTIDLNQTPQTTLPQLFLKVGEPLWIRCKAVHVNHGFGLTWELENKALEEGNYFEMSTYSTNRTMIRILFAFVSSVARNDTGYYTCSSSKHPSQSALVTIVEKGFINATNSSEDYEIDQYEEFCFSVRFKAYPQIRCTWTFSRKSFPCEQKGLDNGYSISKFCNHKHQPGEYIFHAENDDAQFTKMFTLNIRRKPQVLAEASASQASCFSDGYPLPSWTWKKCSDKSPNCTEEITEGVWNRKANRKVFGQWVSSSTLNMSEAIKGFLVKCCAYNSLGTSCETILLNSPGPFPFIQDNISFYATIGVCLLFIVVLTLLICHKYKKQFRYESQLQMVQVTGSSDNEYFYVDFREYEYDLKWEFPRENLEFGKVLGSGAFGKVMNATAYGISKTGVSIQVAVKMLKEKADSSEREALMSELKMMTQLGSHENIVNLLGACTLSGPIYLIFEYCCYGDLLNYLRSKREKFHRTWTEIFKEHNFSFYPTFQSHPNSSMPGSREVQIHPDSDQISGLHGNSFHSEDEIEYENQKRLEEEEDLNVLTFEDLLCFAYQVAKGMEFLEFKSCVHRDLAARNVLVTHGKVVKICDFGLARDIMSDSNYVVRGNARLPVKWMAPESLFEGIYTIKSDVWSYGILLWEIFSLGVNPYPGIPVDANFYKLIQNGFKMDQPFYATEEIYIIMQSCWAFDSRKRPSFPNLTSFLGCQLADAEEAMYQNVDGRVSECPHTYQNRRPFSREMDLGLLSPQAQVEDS

[10] = target: Ephrin type-A receptor 2 (Homo sapiens) (UniProt P29317)
Sequence of Ephrin type-A receptor 2 (Homo sapiens) (P29317 whole entry): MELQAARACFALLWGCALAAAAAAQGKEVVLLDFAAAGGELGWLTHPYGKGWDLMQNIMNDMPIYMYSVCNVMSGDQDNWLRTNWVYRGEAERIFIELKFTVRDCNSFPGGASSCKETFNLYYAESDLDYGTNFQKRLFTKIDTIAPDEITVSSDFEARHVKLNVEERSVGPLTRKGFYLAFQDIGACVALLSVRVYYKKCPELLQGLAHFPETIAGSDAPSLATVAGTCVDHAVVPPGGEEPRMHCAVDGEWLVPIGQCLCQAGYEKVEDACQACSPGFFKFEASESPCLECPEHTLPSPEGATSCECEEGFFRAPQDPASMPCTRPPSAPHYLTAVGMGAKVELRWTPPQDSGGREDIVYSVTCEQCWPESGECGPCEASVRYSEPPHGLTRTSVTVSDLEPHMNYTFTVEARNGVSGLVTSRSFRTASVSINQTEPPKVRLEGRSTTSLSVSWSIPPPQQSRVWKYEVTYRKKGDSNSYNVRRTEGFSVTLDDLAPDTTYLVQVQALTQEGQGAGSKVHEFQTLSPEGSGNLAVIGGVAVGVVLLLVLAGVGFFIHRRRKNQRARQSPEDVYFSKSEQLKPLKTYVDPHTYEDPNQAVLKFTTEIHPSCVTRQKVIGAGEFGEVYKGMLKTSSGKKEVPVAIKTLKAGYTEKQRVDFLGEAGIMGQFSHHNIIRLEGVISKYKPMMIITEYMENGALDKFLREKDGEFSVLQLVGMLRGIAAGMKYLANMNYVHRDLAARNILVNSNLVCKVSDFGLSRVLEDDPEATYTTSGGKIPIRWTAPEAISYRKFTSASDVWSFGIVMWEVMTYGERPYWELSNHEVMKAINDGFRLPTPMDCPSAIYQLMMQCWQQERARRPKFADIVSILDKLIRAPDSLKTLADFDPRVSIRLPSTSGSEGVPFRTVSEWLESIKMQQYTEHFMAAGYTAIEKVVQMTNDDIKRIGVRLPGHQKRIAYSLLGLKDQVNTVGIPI

[11] = target: Serine/threonine-protein kinase PAK 5 (Homo sapiens) (UniProt Q9P286)
[12] = system: Tyrosine-protein kinase ABL1 (Homo sapiens), P00519 [M351T]
[13] = target: Serine/threonine-protein kinase B-raf (Homo sapiens) (UniProt P15056)
[14] = target: Ephrin type-B receptor 1 (Homo sapiens) (UniProt P54762)
[15] = target: Proto-oncogene tyrosine-protein kinase ROS (Homo sapiens) (UniProt P08922)
[16] = target: Mitogen-activated protein kinase kinase kinase 2 (Homo sapiens) (UniProt Q9Y2U5)
Sequence of Mitogen-activated protein kinase kinase kinase 2 (Homo sapiens) (Q9Y2U5 whole entry): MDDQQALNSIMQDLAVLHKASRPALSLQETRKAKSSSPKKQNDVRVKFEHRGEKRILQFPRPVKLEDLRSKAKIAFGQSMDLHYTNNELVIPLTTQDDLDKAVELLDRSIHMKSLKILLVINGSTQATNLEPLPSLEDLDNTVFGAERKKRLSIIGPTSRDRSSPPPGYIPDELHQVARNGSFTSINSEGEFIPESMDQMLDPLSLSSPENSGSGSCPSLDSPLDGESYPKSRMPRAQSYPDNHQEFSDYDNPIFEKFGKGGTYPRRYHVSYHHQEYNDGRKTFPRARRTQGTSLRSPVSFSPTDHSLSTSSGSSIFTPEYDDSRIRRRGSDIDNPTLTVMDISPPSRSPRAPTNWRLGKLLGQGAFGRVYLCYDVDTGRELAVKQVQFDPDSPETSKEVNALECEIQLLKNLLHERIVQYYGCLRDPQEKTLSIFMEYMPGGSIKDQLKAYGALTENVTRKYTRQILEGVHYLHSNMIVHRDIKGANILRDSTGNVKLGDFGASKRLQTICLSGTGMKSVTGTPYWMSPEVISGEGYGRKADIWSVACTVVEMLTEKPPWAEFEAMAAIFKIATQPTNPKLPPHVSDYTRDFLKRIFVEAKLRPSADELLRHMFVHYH

[17] = target: Macrophage colony-stimulating factor 1 receptor (Homo sapiens) (UniProt P07333)
[18] = target: Peripheral plasma membrane protein CASK (Homo sapiens) (UniProt O14936)
[19] = target: Mitogen-activated protein kinase kinase kinase 1 (Homo sapiens) (UniProt Q13233)
Sequence of Mitogen-activated protein kinase kinase kinase 1 (Homo sapiens) (Q13233 whole entry): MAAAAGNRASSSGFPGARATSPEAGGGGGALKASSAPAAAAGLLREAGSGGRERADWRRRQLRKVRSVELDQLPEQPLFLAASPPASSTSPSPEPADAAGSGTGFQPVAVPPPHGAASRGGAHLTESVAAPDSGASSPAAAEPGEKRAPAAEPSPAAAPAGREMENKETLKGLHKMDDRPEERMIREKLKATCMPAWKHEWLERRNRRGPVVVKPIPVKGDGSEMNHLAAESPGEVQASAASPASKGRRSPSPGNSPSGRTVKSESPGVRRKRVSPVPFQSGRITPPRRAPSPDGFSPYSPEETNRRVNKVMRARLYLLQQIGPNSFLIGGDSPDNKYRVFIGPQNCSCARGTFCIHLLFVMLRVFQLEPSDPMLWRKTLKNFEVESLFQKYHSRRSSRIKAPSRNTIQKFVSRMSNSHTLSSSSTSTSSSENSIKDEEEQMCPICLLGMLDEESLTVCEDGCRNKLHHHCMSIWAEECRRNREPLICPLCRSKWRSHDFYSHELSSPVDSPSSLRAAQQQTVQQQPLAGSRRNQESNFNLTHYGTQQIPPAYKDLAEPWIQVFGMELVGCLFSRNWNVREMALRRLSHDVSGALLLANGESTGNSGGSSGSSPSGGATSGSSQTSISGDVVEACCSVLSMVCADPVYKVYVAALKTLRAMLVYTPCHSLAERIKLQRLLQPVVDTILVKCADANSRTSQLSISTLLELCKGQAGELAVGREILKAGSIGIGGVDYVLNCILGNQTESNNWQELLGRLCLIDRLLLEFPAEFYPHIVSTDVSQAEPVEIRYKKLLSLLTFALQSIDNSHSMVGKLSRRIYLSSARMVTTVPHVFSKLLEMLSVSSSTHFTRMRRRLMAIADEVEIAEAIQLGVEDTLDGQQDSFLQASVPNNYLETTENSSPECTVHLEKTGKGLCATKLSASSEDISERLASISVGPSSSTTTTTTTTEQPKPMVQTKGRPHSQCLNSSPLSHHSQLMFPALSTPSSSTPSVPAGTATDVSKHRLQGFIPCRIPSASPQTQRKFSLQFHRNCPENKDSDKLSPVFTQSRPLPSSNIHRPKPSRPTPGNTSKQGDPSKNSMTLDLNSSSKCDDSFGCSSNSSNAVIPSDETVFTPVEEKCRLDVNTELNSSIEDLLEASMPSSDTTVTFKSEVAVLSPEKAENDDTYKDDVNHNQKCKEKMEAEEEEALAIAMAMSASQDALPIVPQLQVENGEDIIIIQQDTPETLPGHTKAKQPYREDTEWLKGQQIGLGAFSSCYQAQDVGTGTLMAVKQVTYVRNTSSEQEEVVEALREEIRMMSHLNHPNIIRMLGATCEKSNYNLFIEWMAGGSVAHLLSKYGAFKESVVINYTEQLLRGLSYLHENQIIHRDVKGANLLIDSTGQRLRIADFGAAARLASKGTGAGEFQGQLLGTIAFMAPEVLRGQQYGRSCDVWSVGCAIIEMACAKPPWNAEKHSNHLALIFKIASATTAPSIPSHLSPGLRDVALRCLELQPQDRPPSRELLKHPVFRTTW

[20] = target: NUAK family SNF1-like kinase 2 (Homo sapiens) (UniProt Q9H093)
[21] = system: Tyrosine-protein kinase ABL1 (Homo sapiens), P00519 [F317L]
[22] = target: Wee1-like protein kinase (Homo sapiens) (UniProt P30291)
[23] = target: Serine/threonine-protein kinase SIK3 (Homo sapiens) (UniProt Q9Y2K2)
[24] = target: cGMP-dependent protein kinase 2 (Homo sapiens) (UniProt Q13237)
[25] = system: Hepatocyte growth factor receptor (Homo sapiens), P08581 [M1250T]
[26] = target: Cyclin-dependent kinase-like 2 (Homo sapiens) (UniProt Q92772)
Sequence of Cyclin-dependent kinase-like 2 (Homo sapiens) (Q92772 whole entry): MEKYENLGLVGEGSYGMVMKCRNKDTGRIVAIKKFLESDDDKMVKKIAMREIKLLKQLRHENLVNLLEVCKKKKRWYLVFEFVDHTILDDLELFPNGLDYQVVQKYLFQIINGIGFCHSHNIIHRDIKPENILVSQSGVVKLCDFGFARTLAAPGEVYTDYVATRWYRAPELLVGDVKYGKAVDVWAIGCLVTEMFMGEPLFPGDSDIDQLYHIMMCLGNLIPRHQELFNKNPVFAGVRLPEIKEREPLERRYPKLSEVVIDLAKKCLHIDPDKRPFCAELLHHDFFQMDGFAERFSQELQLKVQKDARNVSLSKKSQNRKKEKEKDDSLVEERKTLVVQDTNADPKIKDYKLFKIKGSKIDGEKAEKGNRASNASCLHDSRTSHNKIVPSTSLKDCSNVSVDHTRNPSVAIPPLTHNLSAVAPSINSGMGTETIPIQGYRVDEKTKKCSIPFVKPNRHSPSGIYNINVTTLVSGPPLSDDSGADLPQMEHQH

[27] = system: Tyrosine-protein kinase ABL1 (Homo sapiens), P00519 [F317L]; remark: listed apart in the source
[28] = target: Myosin-IIIa (Homo sapiens) (UniProt Q8NEV4)
[29] = target: 5'-AMP-activated protein kinase catalytic subunit alpha-2 (Homo sapiens) (UniProt P54646)
[30] = target: Mitogen-activated protein kinase kinase kinase kinase 2 (Homo sapiens) (UniProt Q12851)
[31] = target: Receptor tyrosine-protein kinase erbB-4 (Homo sapiens) (UniProt Q15303)
[32] = target: Microtubule-associated serine/threonine-protein kinase 1 (Homo sapiens) (UniProt Q9Y2H9)
[33] = system: Epidermal growth factor receptor (Homo sapiens), P00533 [G719C]
[34] = target: G protein-coupled receptor kinase 4 (Homo sapiens) (UniProt P32298)
[35] = target: Mitogen-activated protein kinase kinase kinase 4 (Homo sapiens) (UniProt Q9Y6R4)
[36] = target: Fibroblast growth factor receptor 1 (Homo sapiens) (UniProt P11362)
[37] = target: Ribosomal protein S6 kinase alpha-4 (Homo sapiens) (UniProt O75676)
[38] = target: Dual specificity protein kinase CLK1 (Homo sapiens) (UniProt P49759)
[39] = system: Epidermal growth factor receptor (Homo sapiens), P00533 [UNDEFINED MUTATION]
[40] = system: Receptor-type tyrosine-protein kinase FLT3 (Homo sapiens), P36888 [UNDEFINED MUTATION]
Sequence of Receptor-type tyrosine-protein kinase FLT3 (Homo sapiens), P36888 [UNDEFINED MUTATION] (P36888 whole entry, looked up, change not shown): as the sequence (P36888 whole entry) above

[41] = target: Sigma intracellular receptor 2 (Homo sapiens, UniProt Q5BJF2); conditions: Compound concentration 10.0 uM
[42] = target: MAP/microtubule affinity-regulating kinase 4 (Homo sapiens) (UniProt Q96L34)
[43] = target: Serine/threonine-protein kinase WNK3 (Homo sapiens) (UniProt Q9BYP7)
[44] = target: Rhodopsin kinase GRK1 (Homo sapiens) (UniProt Q15835)
[45] = target: Glycogen synthase kinase-3 beta (Homo sapiens) (UniProt P49841)
[46] = Compound concentration 1000.0 nM
[47] = Compound concentration 100.0 nM

CN(C)c1ncnc(-c2ccc3nc(Nc4cc(CN5CCN(C(=O)CC(F)(F)F)CC5)ccn4)[nH]c3c2)c1Cl [BAY-440]
residual activity [1, 46]: 98% | residual activity [2, 46]: 100% | residual activity [3, 46]: 69% | residual activity [4, 46]: 100% | residual activity [5, 46]: 87% | residual activity [6, 46]: 81% | inhibition [7]: 14.1% | residual activity [8, 46]: 69% | residual activity [9, 46]: 71% | residual activity [10, 46]: 100% | residual activity [11, 46]: 85% | residual activity [12, 46]: 43% | residual activity [13, 46]: 83% | residual activity [14, 46]: 97% | residual activity [15, 46]: 100% | residual activity [16, 46]: 78% | residual activity [17, 46]: 100% | residual activity [18, 46]: 89% | residual activity [19, 46]: 100% | residual activity [20, 46]: 66% | residual activity [21, 46]: 29% | residual activity [22, 46]: 100% | residual activity [23, 46]: 83% | residual activity [24, 46]: 40% | residual activity [25, 46]: 70% | residual activity [26, 46]: 100% | residual activity [27, 46]: 57% | residual activity [28, 46]: 100% | residual activity [29, 46]: 100% | residual activity [30, 46]: 69% | residual activity [31, 46]: 99% | residual activity [32, 46]: 86% | residual activity [33, 46]: 88% | residual activity [34, 46]: 100% | residual activity [35, 46]: 100% | residual activity [36, 46]: 100% | residual activity [37, 46]: 73% | residual activity [38, 46]: 71% | residual activity [39, 46]: 100% | residual activity [40, 46]: 15% | inhibition [41]: 68.1% | residual activity [42, 46]: 100% | residual activity [43, 46]: 85% | residual activity [44, 46]: 90% | residual activity [45, 46]: 100%

C[C@H](c1ccnc(Nc2nc3ccc(-c4cc(N(C)C)ncn4)cc3[nH]2)c1)N1CCN(C(=O)CC(F)(F)F)CC1 [BAY-985]
residual activity [1, 47]: 82% | residual activity [2, 47]: 99% | residual activity [3, 47]: 95% | residual activity [4, 47]: 100% | residual activity [5, 47]: 97% | residual activity [6, 47]: 100% | inhibition [7]: 26% | residual activity [8, 47]: 100% | residual activity [9, 47]: 67% | residual activity [10, 47]: 100% | residual activity [11, 47]: 100% | residual activity [12, 47]: 100% | residual activity [13, 47]: 100% | residual activity [14, 47]: 98% | residual activity [15, 47]: 100% | residual activity [16, 47]: 100% | residual activity [17, 47]: 100% | residual activity [18, 47]: 100% | residual activity [19, 47]: 100% | residual activity [20, 47]: 95% | residual activity [21, 47]: 100% | residual activity [22, 47]: 96% | residual activity [23, 47]: 100% | residual activity [24, 47]: 94% | residual activity [25, 47]: 93% | residual activity [26, 47]: 100% | residual activity [27, 47]: 100% | residual activity [28, 47]: 100% | residual activity [29, 47]: 100% | residual activity [30, 47]: 100% | residual activity [31, 47]: 96% | residual activity [32, 47]: 100% | residual activity [33, 47]: 84% | residual activity [34, 47]: 100% | residual activity [35, 47]: 96% | residual activity [36, 47]: 100% | residual activity [37, 47]: 94% | residual activity [38, 47]: 90% | residual activity [39, 47]: 96% | residual activity [40, 47]: 64% | inhibition [41]: 54.1% | residual activity [42, 47]: 100% | residual activity [43, 47]: 100% | residual activity [44, 47]: 90% | residual activity [45, 47]: 100%
